Measured values published in patent publication US20230081426A1, “COMPOUNDS AND METHODS FOR KRAS MODULATION AND INDICATIONS THEREFOR” (Plexxikon Inc., priority 2020, published 2023).

molecular target: T1, G12D-mutant human KRAS (amino acid residues 1-188) (Homo sapiens, UniProt P01116, G12D); assay: KRAS Binding Disruption Assay (AlphaScreen; biotinylated KRpep-2d analogue or RAF1-RBD), G12D; details: KRAS G12D; geometric mean; read-out: KRAS GMean IC50 (uM) MUTATION: G12D
T1 construct: G12D or G12C-mutant human KRAS (amino acid residues 1-188) with FLAG tag; made in house; host or cells: E. coli
Method in brief: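 Displacement format with mutant KRAS, biotinylated KRpep-2d analogue or RAF1-RBD (5-20 nM each) at pH 7.5 with 5 mM MgCl2.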

T1 sequence (P01116 1-188 isoform P01116-2 G12D): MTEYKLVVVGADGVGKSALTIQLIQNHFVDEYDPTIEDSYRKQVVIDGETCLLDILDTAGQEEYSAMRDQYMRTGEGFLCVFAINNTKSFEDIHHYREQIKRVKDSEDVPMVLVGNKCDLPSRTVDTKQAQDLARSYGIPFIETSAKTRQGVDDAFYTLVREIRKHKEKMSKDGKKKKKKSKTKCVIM

Compound | IC50 [µM]
CC(C)(C)OC(=O)NCCN1[C@@H]2CC[C@H]1CN(c1nc(OCC34CCCN3CCC4)nc3c(F)c(-c4cc(O)cc5ccccc45)ccc13)C2 [P-0551, tert-butyl (2-((1R,5S)-3-(8-fluoro-7-(3-hydroxynaphthalen-1-yl)-2-((tetrahydro-1H-pyrrolizin-7a(5H)-yl)methoxy)quinazolin-4-yl)-3,8-diazabicyclo[3.2.1]octan-8-yl)ethyl)carbamate] | 0.0001 to 10
O=C(O)CN1[C@@H]2CC[C@H]1CN(c1nc(OCC34CCCN3CCC4)nc3c(F)c(-c4cc(O)cc5ccccc45)ccc13)C2 [P-0552, 2-((1R,5S)-3-(8-fluoro-7-(3-hydroxynaphthalen-1-yl)-2-((tetrahydro-1H-pyrrolizin-7a(5H)-yl)methoxy)quinazolin-4-yl)-3,8-diazabicyclo[3.2.1]octan-8-yl)acetic acid] | 0.0001 to 10
CN1CC(F)(F)C[C@H]1COc1nc(N2C[C@H]3CC[C@@H](C2)N3)c2ccc(-c3cc(O)cc4ccccc34)c(F)c2n1 [P-0553, 4-(4-((1R,5S)-3,8-diazabicyclo[3.2.1]octan-3-yl)-2-(((S)-4,4-difluoro-1-methylpyrrolidin-2-yl)methoxy)-8-fluoroquinazolin-7-yl)naphthalen-2-ol] | 0.0001 to 10
CN1C[C@@H](F)C[C@H]1COc1nc(N2C[C@H]3CC[C@@H](C2)N3)c2ccc(-c3cc(O)cc4ccccc34)c(F)c2n1 [P-0554, 4-(4-((1R,5S)-3,8-diazabicyclo[3.2.1]octan-3-yl)-8-fluoro-2-(((2S,4S)-4-fluoro-1-methylpyrrolidin-2-yl)methoxy)quinazolin-7-yl)naphthalen-2-ol] | 0.0001 to 10
Oc1cc(-c2ccc3c(N4C[C@H]5CC[C@@H](C4)N5)nc(N4CC5(CCC5O)C4)nc3c2F)c2ccccc2c1 (stereo partly drawn) [P-0555, 2-(4-((1R,5S)-3,8-diazabicyclo[3.2.1]octan-3-yl)-8-fluoro-7-(3-hydroxynaphthalen-1-yl)quinazolin-2-yl)-2-azaspiro[3.3]heptan-5-ol] | 0.0001 to 10
Oc1cc(-c2ccc3c(N4C[C@H]5CC[C@@H](C4)N5)nc(NCC4CCCC4O)nc3c2F)c2ccccc2c1 (stereo partly drawn) [P-0556, 4-(4-((1R,5S)-3,8-diazabicyclo[3.2.1]octan-3-yl)-8-fluoro-2-(((2-hydroxycyclopentyl)methyl)amino)quinazolin-7-yl)naphthalen-2-ol] | 0.0001 to 10
CNCC1CN(c2nc(N3C[C@H]4CC[C@@H](C3)N4)c3ccc(-c4cc(O)cc5ccccc45)c(F)c3n2)C1 [P-0557, 4-(4-((1R,5S)-3,8-diazabicyclo[3.2.1]octan-3-yl)-8-fluoro-2-(3-((methylamino)methyl)azetidin-1-yl)quinazolin-7-yl)naphthalen-2-ol] | 0.0001 to 10
CCc1cccc2c1N(c1ncc3c(N4C[C@H]5CC[C@@H](C4)N5)nc(OCC45CCCN4CCC5)nc3c1F)CCC2 [P-0558, 4-((1R,5S)-3,8-diazabicyclo[3.2.1]octan-3-yl)-7-(8-ethyl-3,4-dihydroquinolin-1(2H)-yl)-8-fluoro-2-((tetrahydro-1H-pyrrolizin-7a(5H)-yl)methoxy)pyrido[4,3-d]pyrimidine] | 0.0001 to 10
CCc1cccc2c1N(c1ccc3c(N4C[C@H]5CC[C@@H](C4)N5)nc(OCC45CCCN4CCC5)nc3c1F)CCC2 [P-0559, 4-((1R,5S)-3,8-diazabicyclo[3.2.1]octan-3-yl)-7-(8-ethyl-3,4-dihydroquinolin-1(2H)-yl)-8-fluoro-2-((tetrahydro-1H-pyrrolizin-7a(5H)-yl)methoxy)quinazoline] | 0.0001 to 10
CCc1cccc2c1N(c1ccc3c(N4C[C@H]5CC[C@@H](C4)N5)nc(OC[C@@H]4CCCN4C)nc3c1F)CCC2 [P-0560, 4-((1R,5S)-3,8-diazabicyclo[3.2.1]octan-3-yl)-7-(8-ethyl-3,4-dihydroquinolin-1(2H)-yl)-8-fluoro-2-(((S)-1-methylpyrrolidin-2-yl)methoxy)quinazoline] | 0.0001 to 10
Fc1cc(Cl)c2c(-c3ccc4c(N5C[C@H]6CC[C@@H](C5)N6)nc(OCC56CCCN5CCC6)nc4c3F)c[nH]c2c1 [P-0561, 4-((1R,5S)-3,8-diazabicyclo[3.2.1]octan-3-yl)-7-(4-chloro-6-fluoro-1H-indol-3-yl)-8-fluoro-2-((tetrahydro-1H-pyrrolizin-7a(5H)-yl)methoxy)quinazoline] | 0.0001 to 10
Oc1cc(-c2nc(N3C[C@H]4CC[C@@H](C3)N4)c3ccc(-c4cc(O)cc5ccccc45)c(F)c3n2)c2ccccc2c1 [P-0562, 4,4′-(4-((1R,5S)-3,8-diazabicyclo[3.2.1]octan-3-yl)-8-fluoroquinazoline-2,7-diyl)bis(naphthalen-2-ol)] | 10 to 100
Oc1cc(-c2ccc3c(N4C[C@H]5CC[C@@H](C4)N5)nc(N4CC5(CCC(O)C5)C4)nc3c2F)c2ccccc2c1 (stereo partly drawn) [P-0563, 2-(4-((1R,5S)-3,8-diazabicyclo[3.2.1]octan-3-yl)-8-fluoro-7-(3-hydroxynaphthalen-1-yl)quinazolin-2-yl)-2-azaspiro[3.4]octan-6-ol] | 0.0001 to 10
OCCC1CN(c2nc(N3C[C@H]4CC[C@@H](C3)N4)c3ccc(-c4cc(O)cc5ccccc45)c(F)c3n2)C1 [P-0564, 4-(4-((1R,5S)-3,8-diazabicyclo[3.2.1]octan-3-yl)-8-fluoro-2-(3-(2-hydroxyethyl)azetidin-1-yl)quinazolin-7-yl)naphthalen-2-ol] | 0.0001 to 10
CN(C)CC1CN(c2nc(N3C[C@H]4CC[C@@H](C3)N4)c3ccc(-c4cc(O)cc5ccccc45)c(F)c3n2)C1 [P-0565, 4-(4-((1R,5S)-3,8-diazabicyclo[3.2.1]octan-3-yl)-2-(3-((dimethylamino)methyl)azetidin-1-yl)-8-fluoroquinazolin-7-yl)naphthalen-2-ol] | 0.0001 to 10
Fc1c(-c2c[nH]c3cncc(Cl)c23)ccc2c(N3C[C@H]4CC[C@@H](C3)N4)nc(OCC34CCCN3CCC4)nc12 [P-0566, 4-((1R,5S)-3,8-diazabicyclo[3.2.1]octan-3-yl)-7-(4-chloro-1H-pyrrolo[2,3-c]pyridin-3-yl)-8-fluoro-2-((tetrahydro-1H-pyrrolizin-7a(5H)-yl)methoxy)quinazoline] | 0.0001 to 10
COCc1cccc2[nH]cc(-c3ccc4c(N5C[C@H]6CC[C@@H](C5)N6)nc(OCC56CCCN5CCC6)nc4c3F)c12 [P-0567, 4-((1R,5S)-3,8-diazabicyclo[3.2.1]octan-3-yl)-8-fluoro-7-(4-(methoxymethyl)-1H-indol-3-yl)-2-((tetrahydro-1H-pyrrolizin-7a(5H)-yl)methoxy)quinazoline] | 0.0001 to 10
CN(CC(C)(C)CO)c1nc(N2C[C@H]3CC[C@@H](C2)N3)c2ccc(-c3cc(O)cc4ccccc34)c(F)c2n1 [P-0568, 4-(4-((1R,5S)-3,8-diazabicyclo[3.2.1]octan-3-yl)-8-fluoro-2-((3-hydroxy-2,2-dimethylpropyl)(methyl)amino)quinaz-olin-7-yl)naphthalen-2-ol] | 10 to 100
OCC1(COc2nc(N3C[C@H]4CC[C@@H](C3)N4)c3ccc(-c4cc(O)cc5ccccc45)c(F)c3n2)CC2(CCC2)C1 [P-0569, 4-(4-((1R,5S)-3,8-diazabicyclo[3.2.1]octan-3-yl)-8-fluoro-2-((2-(hydroxymethyl)spiro[3.3]heptan-2-yl)methoxy)quinazolin-7-yl)naphthalen-2-ol] | 0.0001 to 10
Fc1c(-c2cccc3cccc(Cl)c23)ccc2c(N3C[C@H]4CC[C@@H](C3)N4)nc(OCC34CCCN3CCC4)nc12 [P-0570, 4-((1R,5S)-3,8-diazabicyclo[3.2.1]octan-3-yl)-7-(8-chloronaphthalen-1-yl)-8-fluoro-2-((tetrahydro-1H-pyrrolizin-7a(5H)-yl)methoxy)quinazoline] | 0.0001 to 10
